According to ChEMBL document CHEMBL5143659, “Concise synthesis and preliminary biological evaluation of new triazolylthioacetone derivatives bearing pyridine, pyrazine, and 3,4,5-trimethoxybenzyl fragment” (Bioorg Med Chem Lett, 2022):
Values belong to the compound of their own block, whether it stands above or below them.

Key:
HepG2 = assay: Antiproliferative activity against human HepG2 cells assessed as inhibition of cell growth by MTT assay; type: functional, cell-based
HCT-116 [1] = assay: Induction of cell cycle arrest in human HCT-116 cells assessed as accumulation of cells at S phase at 1.5 uM incubated for 24 hrs by PI staining based flow cytometry analysis (reference value: 47.56 %); type: functional
HCT-116 [2] = assay: Antiproliferative activity against human HCT-116 cells assessed as inhibition of cell growth by MTT assay; type: functional, cell-based
HCT-116 [3] = assay: Induction of cell cycle arrest in human HCT-116 cells assessed as accumulation of cells at G1/G0 phase at 0.75 uM incubated for 24 hrs by PI staining based flow cytometry analysis (reference value: 31.33 %); type: functional
HCT-116 [4] = assay: Induction of cell cycle arrest in human HCT-116 cells assessed as accumulation of cells at G2/M phase at 0.75 uM incubated for 24 hrs by PI staining based flow cytometry analysis (reference value: 21.10 %); type: functional
HeLa = assay: Antiproliferative activity against human HeLa cells assessed as inhibition of cell growth by MTT assay; type: functional, cell-based
HCT-116 [5] = assay: Induction of cell cycle arrest in human HCT-116 cells assessed as accumulation of cells at G2/M phase at 1.5 uM incubated for 24 hrs by PI staining based flow cytometry analysis (reference value: 21.10 %); type: functional
HCT-116 [6] = assay: Induction of cell cycle arrest in human HCT-116 cells assessed as accumulation of cells at G1/G0 phase at 1.5 uM incubated for 24 hrs by PI staining based flow cytometry analysis (reference value: 31.33 %); type: functional
HCT-116 [7] = assay: Induction of cell cycle arrest in human HCT-116 cells assessed as accumulation of cells at G2/M phase at 3 uM incubated for 24 hrs by PI staining based flow cytometry analysis (reference value: 21.10 %); type: functional
Tubulin (Homo sapiens) = Tubulin (Homo sapiens) (UniProt P68371+Q9H4B7+P0DPH7+P68366+Q13509+Q71U36+P04350+Q3ZCM7+P07437+P68363+Q9BQE3+Q6PEY2+Q13885+Q9BVA1+Q9BUF5); assay: Inhibition of tubulin polymerization (unknown origin) at 10 uM measured every minute for 20 mins by fluorescence based assay relative to control; type: protein-complex assay
HCT-116 [8] = assay: Induction of cell cycle arrest in human HCT-116 cells assessed as accumulation of cells at S phase at 3 uM incubated for 24 hrs by PI staining based flow cytometry analysis (reference value: 47.56 %); type: functional
HCT-116 [9] = assay: Induction of cell cycle arrest in human HCT-116 cells assessed as accumulation of cells at G1/G0 phase at 3 uM incubated for 24 hrs by PI staining based flow cytometry analysis (reference value: 31.33 %); type: functional
Tubulin = assay: Inhibition of tubulin polymerization (unknown origin) measured every minute for 20 mins by fluorescence based assay; type: protein-complex assay, Homo sapiens
[10] = Cytotoxicity against HEK293 cells assessed as inhibition of cell growth by MTT assay; type: toxicity, cell-based; settings: human
HT-29 = assay: Antiproliferative activity against human HT-29 cells assessed as inhibition of cell growth by MTT assay; type: functional, cell-based
HCT-116 [11] = assay: Induction of cell cycle arrest in human HCT-116 cells assessed as accumulation of cells at S phase at 0.75 uM incubated for 24 hrs by PI staining based flow cytometry analysis (reference value: 47.56 %); type: functional
[12] = molecular target: Vascular endothelial growth factor receptor 2 (Homo sapiens, UniProt P35968); assay: Inhibition of VEGFR2 (unknown origin) by kinase-glo luminescent assay
Sequence of Vascular endothelial growth factor receptor 2 (P35968 whole entry): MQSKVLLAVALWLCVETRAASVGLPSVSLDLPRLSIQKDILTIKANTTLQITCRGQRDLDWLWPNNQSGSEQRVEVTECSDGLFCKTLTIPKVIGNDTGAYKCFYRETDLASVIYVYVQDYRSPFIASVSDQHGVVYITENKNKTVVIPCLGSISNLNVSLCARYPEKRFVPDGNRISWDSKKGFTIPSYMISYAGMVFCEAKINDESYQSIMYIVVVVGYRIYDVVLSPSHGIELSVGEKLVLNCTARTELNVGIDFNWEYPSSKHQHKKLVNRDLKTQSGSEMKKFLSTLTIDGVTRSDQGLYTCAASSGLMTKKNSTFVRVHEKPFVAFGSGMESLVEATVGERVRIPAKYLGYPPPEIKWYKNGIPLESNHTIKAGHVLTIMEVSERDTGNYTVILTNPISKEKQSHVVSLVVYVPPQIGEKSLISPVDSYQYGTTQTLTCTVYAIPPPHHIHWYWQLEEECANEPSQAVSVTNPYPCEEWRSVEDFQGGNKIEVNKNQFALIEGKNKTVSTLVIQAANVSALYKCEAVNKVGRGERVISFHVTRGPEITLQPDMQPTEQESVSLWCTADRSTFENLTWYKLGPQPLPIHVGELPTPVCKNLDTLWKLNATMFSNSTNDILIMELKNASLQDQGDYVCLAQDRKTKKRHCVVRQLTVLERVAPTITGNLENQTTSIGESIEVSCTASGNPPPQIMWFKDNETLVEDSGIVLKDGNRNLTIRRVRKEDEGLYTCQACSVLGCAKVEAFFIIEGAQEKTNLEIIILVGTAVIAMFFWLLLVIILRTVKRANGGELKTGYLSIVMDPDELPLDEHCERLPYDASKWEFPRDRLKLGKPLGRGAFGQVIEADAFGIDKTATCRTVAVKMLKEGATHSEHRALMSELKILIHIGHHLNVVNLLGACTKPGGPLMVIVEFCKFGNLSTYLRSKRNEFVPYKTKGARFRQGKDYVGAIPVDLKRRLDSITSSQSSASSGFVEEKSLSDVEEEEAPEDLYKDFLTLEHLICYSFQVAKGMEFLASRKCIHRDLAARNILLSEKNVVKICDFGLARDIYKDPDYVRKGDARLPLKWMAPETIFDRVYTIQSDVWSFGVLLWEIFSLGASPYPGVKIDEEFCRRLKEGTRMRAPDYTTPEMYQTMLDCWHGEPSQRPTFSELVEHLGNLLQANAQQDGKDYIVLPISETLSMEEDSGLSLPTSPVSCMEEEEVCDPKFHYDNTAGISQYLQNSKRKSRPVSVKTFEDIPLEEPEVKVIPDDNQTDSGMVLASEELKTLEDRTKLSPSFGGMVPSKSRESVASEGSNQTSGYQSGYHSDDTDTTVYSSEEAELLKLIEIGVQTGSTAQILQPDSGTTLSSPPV

SMILES: COc1cc(Cc2nnc(SCC(C)=O)n2N2C(=O)c3ccccc3C2=O)cc(OC)c1OC
IC50 (HepG2): > 100 µM

SMILES: O=C(CSc1nnc(-c2ccccn2)n1N1C(=O)c2ccccc2C1=O)c1ccccc1
IC50 (HepG2): > 100 µM

SMILES: COc1cc(Cc2nnc(SCC(=O)C3CC3)n2N2C(=O)c3ccccc3C2=O)cc(OC)c1OC
IC50 (HepG2): > 100 µM

SMILES: COc1cc(COc2nnc(SCC(=O)c3ccc(Cl)cc3)n2N2C(=O)c3ccccc3C2=O)cc(OC)c1OC
IC50 (HepG2): > 100 µM

SMILES: CC(=O)CSc1nnc(-c2cnccn2)n1N1C(=O)c2ccccc2C1=O
IC50 (HepG2): > 100 µM

SMILES: O=C(CSc1nnc(-c2ccccn2)n1N1C(=O)c2ccccc2C1=O)C1CC1
IC50 (HepG2): > 100 µM

SMILES: O=C(CSc1nnc(-c2cnccn2)n1N1C(=O)c2ccccc2C1=O)c1ccc(C(F)(F)F)cc1
IC50 (HepG2): > 100 µM

SMILES: CC(=O)CSc1nnc(-c2ccccn2)n1N1C(=O)c2ccccc2C1=O
IC50 (HepG2): > 100 µM

SMILES: COc1cc(-c2nnc(SCC(=O)c3ccc(C)cc3)n2N2C(=O)c3ccccc3C2=O)cc(OC)c1OC
IC50 (HCT-116 [2]): > 100 µM
IC50 (HeLa): 16.2 µM
inhibition (Tubulin (Homo sapiens)): 19%
IC50 [10]: > 100 µM
IC50 (HT-29): 76.4 µM

SMILES: COc1ccc(/C=C\c2cc(OC)c(OC)c(OC)c2)cc1O [COMBRETASTATIN A4]
IC50 (HCT-116 [2]): 1.1 µM

SMILES: COc1ccc(/C=N/n2c(SCC(=O)c3ccc(Cl)cc3)nnc2-c2cc3ccccc3[nH]2)cc1
IC50 [12]: 0.071 µM

SMILES: COc1cc(Cc2nnc(SCC(=O)c3ccc(C)cc3)n2N2C(=O)c3ccccc3C2=O)cc(OC)c1OC
IC50 (HepG2): > 100 µM

More lines, main results first:

IC50 (HepG2): > 100 µM
SMILES: O=C(CSc1nnc(-c2cnccn2)n1N1C(=O)c2ccccc2C1=O)c1ccc(Cl)cc1

IC50 (HepG2): > 100 µM
SMILES: O=C(CSc1nnc(-c2cnccn2)n1N1C(=O)c2ccccc2C1=O)C1CC1

IC50 (HCT-116 [2]): 1.46 µM
IC50 (HeLa): 9.02 µM
IC50 (HepG2): 3.65 µM
inhibition (Tubulin (Homo sapiens)): 36%
IC50 (Tubulin): 12.7 µM
IC50 (HT-29): 0.62 µM
SMILES: COc1cc(Cc2nnc(SCC(=O)c3ccc(C)cc3)n2N)cc(OC)c1OC
Activity (HCT-116 [1]): 30.21%
Activity (HCT-116 [3]): 29.3%
Activity (HCT-116 [4]): 33.73%
Activity (HCT-116 [5]): 36.03%
Activity (HCT-116 [6]): 33.76%
Activity (HCT-116 [7]): 48.75%
Activity (HCT-116 [8]): 40.12%
Activity (HCT-116 [9]): 11.13%
IC50 [10]: > 100 µM
Activity (HCT-116 [11]): 36.97%

IC50 (HepG2): 89.7 µM
SMILES: Cc1ccc(C(=O)CSc2nnc(-c3cnccn3)n2N2C(=O)c3ccccc3C2=O)cc1

IC50 (HCT-116 [2]): 7.57 µM
IC50 (HeLa): 29.4 µM
IC50 (HepG2): 13.1 µM
IC50 (HT-29): 12.2 µM
SMILES: COc1cc(COc2nnc(SCC(=O)c3ccc(C)cc3)n2N)cc(OC)c1OC
IC50 [10]: > 100 µM

IC50 (HepG2): 61.1 µM
SMILES: COc1ccc(C(=O)CSc2nnc(Cc3cc(OC)c(OC)c(OC)c3)n2N2C(=O)c3ccccc3C2=O)cc1

IC50 (HepG2): 78.3 µM
SMILES: O=C(CSc1nnc(-c2ccccn2)n1N1C(=O)c2ccccc2C1=O)c1ccc(Cl)cc1

IC50 (HepG2): 94.3 µM
SMILES: O=C(CSc1nnc(-c2ccccn2)n1N1C(=O)c2ccccc2C1=O)c1ccc(C(F)(F)F)cc1

IC50 (HepG2): 35.3 µM
SMILES: COc1cc(Cc2nnc(SCC(=O)c3ccc(C(F)(F)F)cc3)n2N2C(=O)c3ccccc3C2=O)cc(OC)c1OC

IC50 (HepG2): 94.8 µM
SMILES: COc1cc(Cc2nnc(SCC(=O)c3ccc(Cl)cc3)n2N2C(=O)c3ccccc3C2=O)cc(OC)c1OC

IC50 (HCT-116 [2]): 4 µM
IC50 (HeLa): 11.8 µM
IC50 (HepG2): 16.2 µM
IC50 (HT-29): 10.8 µM
SMILES: COc1ccc(C(=O)CSc2nnc(Cc3cc(OC)c(OC)c(OC)c3)n2N)cc1
IC50 [10]: > 100 µM

IC50 (HepG2): 80.3 µM
SMILES: COc1cc(COc2nnc(SCC(=O)c3ccc(C)cc3)n2N2C(=O)c3ccccc3C2=O)cc(OC)c1OC

IC50 (HepG2): 65.2 µM
SMILES: Cc1ccc(C(=O)CSc2nnc(-c3ccccn3)n2N2C(=O)c3ccccc3C2=O)cc1

IC50 (HepG2): 90.3 µM
SMILES: COc1ccc(C(=O)CSc2nnc(-c3ccccn3)n2N2C(=O)c3ccccc3C2=O)cc1

IC50 (HCT-116 [2]): > 100 µM
IC50 (HeLa): > 100 µM
IC50 (HepG2): 25.4 µM
IC50 (HT-29): 67.6 µM
SMILES: COc1ccc(C(=O)CSc2nnc(OCc3cc(OC)c(OC)c(OC)c3)n2N)cc1
IC50 [10]: > 100 µM

IC50 (HepG2): 71.3 µM
SMILES: COc1cc(Cc2nnc(SCC(=O)c3ccccc3)n2N2C(=O)c3ccccc3C2=O)cc(OC)c1OC
